Measurements taken from PubChem BioAssay (NCI).
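Tested at 5 concentrations; 48 h exposure; 96-well plates; endpoints linearly interpolated, else capped at highest concentration. Here, GI50 denotes the concentration required for 50% inhibition of growth. TGI marks complete inhibition of growth.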

Tests used:
Test in all cases: inhibition of tumour cell growth, NCI panel, 48 h
NCI-H226 lung = system: NCI-H226 lung
CAKI-1 renal = system: CAKI-1 renal
CCRF-CEM leukemia = system: CCRF-CEM leukemia
MCF7 breast = system: MCF7 breast
EKVX NSCLC = system: EKVX NSCLC
OVCAR-3 ovarian = system: OVCAR-3 ovarian
MOLT-4 leukemia = system: MOLT-4 leukemia
HT29 colon = system: HT29 colon
SF-539 CNS = system: SF-539 CNS
SNB-75 CNS = system: SNB-75 CNS
SW-620 colon = system: SW-620 colon
UACC-62 melanoma = system: UACC-62 melanoma
SF-295 CNS = system: SF-295 CNS
HOP-92 NSCLC = system: HOP-92 NSCLC
ACHN renal = system: ACHN renal
NCI-H23 lung = system: NCI-H23 lung
LOX IMVI melanoma = system: LOX IMVI melanoma
SK-MEL-28 melanoma = system: SK-MEL-28 melanoma
NCI/ADR-RES ovarian = system: NCI/ADR-RES ovarian
HCC-2998 colon = system: HCC-2998 colon
SNB-19 CNS = system: SNB-19 CNS
COLO 205 colon = system: COLO 205 colon
MDA-MB-435 = system: MDA-MB-435
KM12 colon = system: KM12 colon
MALME-3M melanoma = system: MALME-3M melanoma
NCI-H522 lung = system: NCI-H522 lung
RXF 393 renal = system: RXF 393 renal
OVCAR-8 ovarian = system: OVCAR-8 ovarian
A498 renal = system: A498 renal
DU-145 prostate = system: DU-145 prostate
BT-549 breast = system: BT-549 breast
HOP-62 NSCLC = system: HOP-62 NSCLC
OVCAR-4 ovarian = system: OVCAR-4 ovarian
MDA-MB-231 breast = system: MDA-MB-231 breast
K-562 leukemia = system: K-562 leukemia
TK-10 renal = system: TK-10 renal
SN12C renal = system: SN12C renal
786-0 renal = system: 786-0 renal
U251 CNS = system: U251 CNS
IGROV1 ovarian = system: IGROV1 ovarian
M14 melanoma = system: M14 melanoma
A549 NSCLC = system: A549 NSCLC
UO-31 renal = system: UO-31 renal
SK-OV-3 ovarian = system: SK-OV-3 ovarian
HCT-15 colon = system: HCT-15 colon
SR leukemia = system: SR leukemia
HL-60(TB) leukemia = system: HL-60(TB) leukemia
NCI-H460 lung = system: NCI-H460 lung
SK-MEL-5 melanoma = system: SK-MEL-5 melanoma
PC-3 prostate = system: PC-3 prostate
SK-MEL-2 melanoma = system: SK-MEL-2 melanoma
HS 578T breast = system: HS 578T breast
T-47D breast = system: T-47D breast
SF-268 CNS = system: SF-268 CNS
OVCAR-5 ovarian = system: OVCAR-5 ovarian
RPMI-8226 leukemia = system: RPMI-8226 leukemia
UACC-257 melanoma = system: UACC-257 melanoma
HCT-116 colon = system: HCT-116 colon

`CCN(CC)c1ccc2nc3ccc(=[N+](CC)CC)cc-3oc2c1` was tested, and the GI50 (NCI-H226 lung) was 729 nM, the TGI (NCI-H226 lung) was 3.8 µM and the GI50 (CAKI-1 renal) was 2710 nM. For the same compound, the TGI (CAKI-1 renal) was > 31.8 µM, the GI50 (CCRF-CEM leukemia) was 97.3 nM and the TGI (CCRF-CEM leukemia) was > 100 µM. The GI50 (MCF7 breast) was 29 nM, the TGI (MCF7 breast) was 276 nM and the GI50 (EKVX NSCLC) was 292 nM. The TGI (EKVX NSCLC) was > 40.7 µM, the GI50 (OVCAR-3 ovarian) was 31.8 nM and the TGI (OVCAR-3 ovarian) was 362 nM. For the same compound, the GI50 (MOLT-4 leukemia) was 286 nM, the TGI (MOLT-4 leukemia) was > 100 µM and the GI50 (HT29 colon) was 182 nM. The TGI (HT29 colon) was 2670 nM, the GI50 (SF-539 CNS) was 286 nM and the TGI (SF-539 CNS) was 18.1 µM. The GI50 (SNB-75 CNS) was 1310 nM, the TGI (SNB-75 CNS) was 6.85 µM and the GI50 (SW-620 colon) was 44.9 nM. For the same compound, the TGI (SW-620 colon) was > 100 µM, the GI50 (UACC-62 melanoma) was 756 nM and the TGI (UACC-62 melanoma) was 4.33 µM. For the same compound, the GI50 (SF-295 CNS) was 280 nM, the GI50 (HOP-92 NSCLC) was 1310 nM and the TGI (HOP-92 NSCLC) was 5.14 µM. It also gave a GI50 (ACHN renal) of 1560 nM, a TGI (ACHN renal) of 59.8 µM and a GI50 (NCI-H23 lung) of 97 nM. It also gave a TGI (NCI-H23 lung) of 1270 nM, a GI50 (LOX IMVI melanoma) of 110 nM and a TGI (LOX IMVI melanoma) of 1590 nM. For the same compound, the GI50 (SK-MEL-28 melanoma) was 1500 nM, the TGI (SK-MEL-28 melanoma) was 27.7 µM and the GI50 (NCI/ADR-RES ovarian) was 6.52 µM. For the same compound, the TGI (NCI/ADR-RES ovarian) was > 73.3 µM, the GI50 (HCC-2998 colon) was 395 nM and the TGI (HCC-2998 colon) was 39.4 µM. For the same compound, the GI50 (SNB-19 CNS) was 786 nM, the TGI (SNB-19 CNS) was > 35.3 µM and the GI50 (COLO 205 colon) was 22.2 nM. For the same compound, the TGI (COLO 205 colon) was 860 nM, the GI50 (MDA-MB-435) was 401 nM and the TGI (MDA-MB-435) was 1890 nM. The GI50 (KM12 colon) was 122 nM, the TGI (KM12 colon) was 8.13 µM and the GI50 (MALME-3M melanoma) was 115 nM. For the same compound, the TGI (MALME-3M melanoma) was 628 nM, the GI50 (NCI-H522 lung) was 53.4 nM and the TGI (NCI-H522 lung) was 329 nM. It also gave a GI50 (RXF 393 renal) of 1630 nM, a TGI (RXF 393 renal) of 9.84 µM and a GI50 (OVCAR-8 ovarian) of 121 nM. For the same compound, the GI50 (A498 renal) was 1010 nM, the TGI (A498 renal) was 17.5 µM and the GI50 (DU-145 prostate) was 522 nM. The TGI (DU-145 prostate) was 20.9 µM, the GI50 (BT-549 breast) was 2320 nM and the TGI (BT-549 breast) was 21 µM. For the same compound, the GI50 (HOP-62 NSCLC) was 930 nM, the TGI (HOP-62 NSCLC) was 32.2 µM and the GI50 (OVCAR-4 ovarian) was 46.3 nM. It also gave a TGI (OVCAR-4 ovarian) of 1280 nM, a GI50 (MDA-MB-231 breast) of 66.7 nM and a TGI (MDA-MB-231 breast) of 2960 nM. The GI50 (K-562 leukemia) was 174 nM, the TGI (K-562 leukemia) was > 100 µM and the GI50 (TK-10 renal) was 474 nM. For the same compound, the TGI (TK-10 renal) was 3.57 µM, the GI50 (SN12C renal) was 153 nM and the TGI (SN12C renal) was 15.2 µM. For the same compound, the GI50 (786-0 renal) was 1180 nM, the TGI (786-0 renal) was 2600 nM and the GI50 (U251 CNS) was 119 nM. For the same compound, the TGI (U251 CNS) was > 100 µM, the GI50 (IGROV1 ovarian) was 107 nM and the TGI (IGROV1 ovarian) was 862 nM. The GI50 (M14 melanoma) was 90.3 nM, the TGI (M14 melanoma) was 1710 nM and the GI50 (A549 NSCLC) was 826 nM. For the same compound, the TGI (A549 NSCLC) was > 100 µM, the GI50 (UO-31 renal) was 2630 nM and the TGI (UO-31 renal) was 25 µM. For the same compound, the GI50 (SK-OV-3 ovarian) was 671 nM, the TGI (SK-OV-3 ovarian) was 4.75 µM and the GI50 (HCT-15 colon) was 1490 nM. For the same compound, the TGI (HCT-15 colon) was > 64.8 µM, the GI50 (SR leukemia) was 424 nM and the TGI (SR leukemia) was > 44.3 µM. For the same compound, the GI50 (HL-60(TB) leukemia) was 24.7 nM, the TGI (HL-60(TB) leukemia) was 1200 nM and the GI50 (NCI-H460 lung) was 108 nM. It also gave a TGI (NCI-H460 lung) of 8.12 µM, a GI50 (SK-MEL-5 melanoma) of 162 nM and a TGI (SK-MEL-5 melanoma) of 1170 nM. The GI50 (PC-3 prostate) was 93.4 nM, the TGI (PC-3 prostate) was > 100 µM and the GI50 (SK-MEL-2 melanoma) was 1360 nM. It also gave a TGI (SK-MEL-2 melanoma) of 3.99 µM, a GI50 (HS 578T breast) of 1370 nM and a TGI (HS 578T breast) of 5.94 µM. For the same compound, the GI50 (T-47D breast) was 105 nM, the TGI (T-47D breast) was 1180 nM and the GI50 (SF-268 CNS) was 184 nM. For the same compound, the TGI (SF-268 CNS) was 31.2 µM, the GI50 (OVCAR-5 ovarian) was 442 nM and the TGI (OVCAR-5 ovarian) was 2920 nM. It also gave a GI50 (RPMI-8226 leukemia) of 264 nM, a TGI (RPMI-8226 leukemia) of 20 µM and a GI50 (UACC-257 melanoma) of 45.7 nM. It also gave a TGI (UACC-257 melanoma) of 654 nM, a GI50 (HCT-116 colon) of 40.2 nM and a TGI (HCT-116 colon) of 1270 nM.
